Biological target: ATX (full length human β form with a C-terminal 6-His tag) (Homo sapiens, UniProt Q13822)
Type: biochemical
Details: for LE (ligand efficiency): LE = −RTpKi/nb heavy atoms; for LE (ligand efficiency) / LLE (lipophilic ligand efficiency): from concentration response pIC50; for LLE (lipophilic ligand efficiency): LLE = pIC50 – cLogP; for affinities within fold of each other: BAL hits 16, 19 and 22 compared with each other

OB(O)c1ccc2cc[nH]c2c1 [Compound 1]
LE (ligand efficiency): 0.65 | LLE (lipophilic ligand efficiency): 4.4

O=C(O)c1ccc2cc[nH]c2c1 [Compound 2]
LE (ligand efficiency): 0.35 | LLE (lipophilic ligand efficiency): 2.8

OB(O)c1ccc2nonc2c1 [Compound 3]
LE (ligand efficiency): 0.57 | LLE (lipophilic ligand efficiency): 3.8

Oc1ccc2nonc2c1 [Compound 4]
LE (ligand efficiency): 0.50 | LLE (lipophilic ligand efficiency): 3.5

OB(O)c1cccc(O)c1 [Compound 5]
LE (ligand efficiency): 0.68 | LLE (lipophilic ligand efficiency): 3.7

NCc1cccc(O)c1 [Compound 6]
LE (ligand efficiency): 0.44 | LLE (lipophilic ligand efficiency): 2.8

Nc1cccc(-c2nnc[nH]2)c1 [Compound 8]
LE (ligand efficiency): 0.41 | LLE (lipophilic ligand efficiency): 3.4

OB(O)c1ccc(O)cc1 [Compound 9]
LE (ligand efficiency): 0.68 | LLE (lipophilic ligand efficiency): 3.7

Oc1ccc(-n2ccnc2)cc1 [Compound 10]
LE (ligand efficiency): 0.37 | LLE (lipophilic ligand efficiency): 2.5

CS(=O)(=O)c1ccc(B(O)O)cc1 [Compound 11]
LE (ligand efficiency): 0.55 | LLE (lipophilic ligand efficiency): 4.9

CS(=O)(=O)c1ccc(O)cc1 [Compound 12]
LE (ligand efficiency): 0.40 | LLE (lipophilic ligand efficiency): 2.9

COc1ccc(B(O)O)cc1 [Compound 13]
LE (ligand efficiency): 0.66 | LLE (lipophilic ligand efficiency): 3.6

OB(O)c1ccccc1 [Compound 14, phenyl boronic acid]
LE (ligand efficiency): 0.76 | LLE (lipophilic ligand efficiency): 3.7

COc1ccccc1B(O)O [Compound 15]
LE (ligand efficiency): 0.67 | LLE (lipophilic ligand efficiency): 3.8

OB(O)c1ccccc1OCc1cccc(Cl)c1 [Compound 16]
affinities within fold of each other: ≤ 3 fold | LE (ligand efficiency): 0.45 | LLE (lipophilic ligand efficiency): 3.5 | increase in potency (relative to phenyl boronic acid 14): 10 fold

COc1cccc(B(O)O)c1 [Compound 17]
LE (ligand efficiency): 0.58 | LLE (lipophilic ligand efficiency): 2.9

OCc1cccc(B(O)O)c1 [Compound 18]
LLE (lipophilic ligand efficiency): 3.6

COCCc1ccc(OCc2cccc(B(O)O)c2)cc1 [Compound 19]
affinities within fold of each other: ≤ 3 fold | LE (ligand efficiency): 0.41 | LLE (lipophilic ligand efficiency): 3.3 | more potent than 18 (relative to 18): 25 fold

N#Cc1ccc(B(O)O)cc1 [Compound 21]
LE (ligand efficiency): 0.66

COc1cc(COc2ccc(B(O)O)cc2Cl)cc(OC)c1 [Compound 22]
affinities within fold of each other: ≤ 3 fold | LE (ligand efficiency): 0.40 | LLE (lipophilic ligand efficiency): 3.4

N#Cc1cccc(B(O)O)c1 [Compound 26]
LE (ligand efficiency): 0.58
